The record followed here is US7544691B2, “Guanidine derivatives” (Actelion Pharmaceuticals, Ltd., priority 2004, dated 2009).

pIC50: −log10 of the molar value.

The target in the assay is T1, NPFF1 receptor (Homo sapiens, UniProt Q9GZQ6).
T1 construct: expressed in transfected cells; host or cells: Chinese Hamster Ovary cells, CHOSP10 (membranes)
T1 sequence (Q9GZQ6 whole entry): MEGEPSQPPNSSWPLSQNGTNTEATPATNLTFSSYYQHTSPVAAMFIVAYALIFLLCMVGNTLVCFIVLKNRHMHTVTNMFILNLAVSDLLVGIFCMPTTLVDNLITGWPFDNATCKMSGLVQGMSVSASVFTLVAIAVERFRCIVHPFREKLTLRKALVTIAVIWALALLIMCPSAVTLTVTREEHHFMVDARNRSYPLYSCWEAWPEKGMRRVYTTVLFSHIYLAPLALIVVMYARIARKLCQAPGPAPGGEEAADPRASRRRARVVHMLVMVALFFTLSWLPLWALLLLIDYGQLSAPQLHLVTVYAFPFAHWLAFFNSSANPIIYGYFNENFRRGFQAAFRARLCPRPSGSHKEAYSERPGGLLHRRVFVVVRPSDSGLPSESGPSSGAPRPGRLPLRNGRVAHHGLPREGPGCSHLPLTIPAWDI
The assay can be described thus: NPFF receptor binding test (displacement of 125I-Tyr1-NPFF from CHOSP10 cell membranes). The settings on record: membranes of CHOSP10 cells producing NPFF1 receptor; 0.2 nM 125I-Tyr1-NPFF; 90 minutes at room temperature. As for the experimental part:
Compounds of Formula I were examined in the following test for their affinity to the NPFF receptors: Hamster cells suitable for neuropeptide FF receptor-binding studies (Chinese Hamster Ovary cells, CHOSP10) which in each case produce the NPFF1 or NPFF2 receptor, were multiplied in standard cell-culture conditions. The cell-culture medium was sucked out and 5 ml of buffer A (5 mM Tris pH=7.4, 1 mM MgCl2) added per 17 cm Petri dish. The cells were scraped off the cell-culture plate and transferred into a 50 ml Falcon vessel. The cells were then centrifuged for 5 minutes at 450 g, resuspended in buffer A once again and mixed for 30 seconds on a Polytron Vortexer. After centrifugation at 30,000 g for 20 minutes the supernatant was discarded and the membrane pellet taken up in 500 μl buffer C (75 mM Tris pH=7.4, 25 mM MgCl2, 250 mM sucrose, 0.1 mM PMSF, 0.1 mM phenanthroline). The membrane-buffer mixture was then divided into aliquots and deep-frozen. The protein content of an aliquot was determined by the Lowry method. The binding test was carried out in a final volume of 250 μl. 100 μl membrane-buffer mixture corresponding to 35 μg protein content was mixed with 95 μl binding buffer (50 mM Tris pH 7.4, 60 mM NaCl, 0.1% protease-free BSA, 0.01% NaN3). After addition of 5 μl of a concentration of test substance per measurement point in each case, 0.2 nM ^125I-Tyr1-NPFF (NEN, NEX381) per measurement point was added in 50 μl. After 90 minutes' incubation at room temperature the samples were sucked out through a GF/C filter (Millipore ([…]60)) and the filter was washed with ice cold binding buffer with 3 times 300 μl (Packard Filtermate). After addition of 55 μl Microscint 40 (Packard 6013641) scintillation fluid the measurement points were quantified in the gamma counter (Packard, Top Count NXT). Non-specific binding was ascertained in the presence of 1 μM unmarked neuropeptide FF. Specific binding is defined as the difference between total and non-specific binding. IC50 values are defined as that concentration of the antagonist which displaces 50% of the ^125I-marked neuropeptide FF. This concentration is ascertained by linear regression analysis after logit/log-transformation of the binding values.
For orientation: Displacement assays read how much labelled ligand stays bound in the presence of the test substance.
A word on the pIC50: it is the IC50 on a negative log10 scale, so that one unit is a factor of ten. The compound `Cc1nc(NC(=N)N)nc2c1C(C)CCC2` (racemic) [N-(4,5-dimethyl-5,6,7,8-tetrahydro-quinazolin-2-yl)-guanidine] showed a pIC50 of 8.15.

As to `Cc1nc(NC(=N)N)nc2c1CCCCC2` (racemic) [N-(4-methyl-6,7,8,9-tetrahydro-5H-cycloheptapyrimidin-2-yl)-guanidine], the pIC50 is 7.27. The result for `Cc1nc(NC(=N)N)nc2c1CCCC2` (racemic) [N-(4-methyl-5,6,7,8-tetrahydro-quinazolin-2-yl)-guanidine] reads 8.40; that for `Cc1nc(NC(=N)N)nc2c1CCCCCC2` (racemic) [N-(4-methyl-5,6,7,8,9,10-hexahydro-cyclooctapyrimidin-2-yl)-guanidine], 7.22; that for `Cc1nc(NC(=N)N)nc2c1CC(C(C)(C)C)CC2` (racemic) [N-(6-tert-butyl-4-methyl-5,6,7,8-tetrahydro-quinazolin-2-yl)-guanidine], 8.10. The result for `CCCC1CCc2nc(NC(=N)N)nc(C)c2C1` (racemic) [N-(4-methyl-6-propyl-5,6,7,8-tetrahydro-quinazolin-2-yl)-guanidine] reads 9.00; that for `Cc1nc(NC(=N)N)nc2c1CC(C(C)C)CC2` (racemic) [N-(6-isopropyl-4-methyl-5,6,7,8-tetrahydro-quinazolin-2-yl)-guanidine], 8.70. Consider `CCC(C)C1CCCc2c(C)nc(NC(=N)N)nc21` (racemic) [N-(8-sec-butyl-4-methyl-5,6,7,8-tetrahydro-quinazolin-2-yl)-guanidine], for which the pIC50 was 7.14.

In the case of `Cc1nc(NC(=N)N)nc2c1CCCC2C(C)(C)C` (racemic) [N-(8-tert-butyl-4-methyl-5,6,7,8-tetrahydro-quinazolin-2-yl)-guanidine], the pIC50 was 7.41.

`CCC(C)(C)C1CCc2nc(NC(=N)N)nc(C)c2C1` (racemic) [N-[6-(1,1-dimethyl-propyl)-4-methyl-5,6,7,8-tetrahydro-quinazolin-2-yl]-guanidine] gave a pIC50 of 7.72. In the case of `Cc1nc(NC(=N)N)nc2c1CCCC2c1ccccc1` (racemic) [N-(4-methyl-8-phenyl-5,6,7,8-tetrahydro-quinazolin-2-yl)-guanidine], the pIC50 was 7.80.

In turn, `Cc1nc(NC(=N)N)nc2c1CC(c1ccccc1)CC2` (racemic) [N-(4-methyl-6-phenyl-5,6,7,8-tetrahydro-quinazolin-2-yl)-guanidine] gave a pIC50 of 7.80. The result for `Cc1nc(NC(=N)N)nc2c1CC(C)CC2` (racemic) [N-(4,6-dimethyl-5,6,7,8-tetrahydro-quinazolin-2-yl)-guanidine] reads 7.32.
